This is an account of results in patent US20250066807A1, “CYP72A219 GENES CONFERRING HERBICIDE TOLERANCE” (COLORADO STATE UNIVERSITY RESEARCH FOUNDATION, priority 2021, published 2025).

“Also recorded” adds a separate entry of the source.

In data set [1] the test system is CYP72A219 gene from chromosome 16 (SEQ ID NO: 7). As to the kind of experiment: tembotrione metabolism in yeast expressing CYP72A219 (c). The data set is classed as in vitro ADME, Amaranthus palmeri. Particulars: SEQ ID NO: 7 vector; 150 μL of 1000 μM tembotrione, 24 h, 30 C; FIG. 3D-E. The method, then: (§1) A functional validation of the candidate genes was conducted in a yeast system. In brief, the yeast lines WAT11 and WAT21 express the plant cytochrome P450 reductase genes ATR1 and ATR2, respectively, and have the endogenous yeast cytochrome P450 reductase gene knocked out. The sequences of the three CYP72A219 genes and the CYP81E gene were codon-optimized for expression in yeast and synthesized by Genewiz in vector pUC57. The genes were cloned into yeast expression vector pYES2 with a galactose inducible promoter, a uracil synthesis gene, and an ampicillin resistance gene. The vectors were first transformed into E. coli and selected on ampicillin, followed by sequencing to confirm the correct insertion of the P450 gene sequence. Plasmid was extracted from transformed colonies for transformation into yeast lines WAT11 and WAT21 using a LiAc protocol and plated on glucose-containing media lacking uracil to select for transformed cells. The empty pYES2 vector was included as a negative control, and a vector containing the Nsf1 gene from corn was included as a positive control known to metabolize the HPPD-inhibiting herbicides mesotrione and tembotrione. […] The incubation solution was then centrifuged, and the supernatant was analyzed using LC/MS-MS to measure parent tembotrione and hydroxy tembotrione metabolites. […]

Data set [2] concerns variant allele of this CYP72A219 gene (SEQ ID NO: 3). As to the kind of experiment: tembotrione metabolism in yeast expressing variant allele of CYP72A219 (a). Particulars: variant allele SEQ ID NO: 3 vector; 150 μL of 1000 μM tembotrione, 24 h, 30 C. The data set is classed as in vitro ADME, Amaranthus palmeri. The method, then: as §1
Data set [3] concerns second CYP72A219 gene from chromosome 4 (SEQ ID NO: 5). As to the kind of experiment: tembotrione metabolism in yeast expressing CYP72A219 (b). Type of data set: in vitro ADME, Amaranthus palmeri. The conditions noted are these: SEQ ID NO: 5 vector; 150 μL of 1000 μM tembotrione, 24 h, 30 C; FIG. 3D-E. On the procedure: as §1
The subject of data set [4] is CYP81E and CYP72A219 genes. Also noted: species or system Amaranthus palmeri. The conditions noted are these: in vivo.
Data set [5] relates to Palmer amaranth (Amaranthus palmeri). The conditions noted are these: in vivo; cited from earlier work.
Data set [6] deals with yeast lines WAT11 and WAT21. As to the kind of experiment: tembotrione metabolism in yeast with empty pYES2 vector (negative control). Particulars: 150 μL of 1000 μM tembotrione, 24 h, 30 C, FIG. 3A. The data set is classed as in vitro ADME. On the procedure:
as §1

Another data set relates to Palmer amaranth. As to the kind of experiment: tembotrione dose response (plant survival) of Palmer amaranth survey populations. Type of data set: in vivo, Amaranthus palmeri. The conditions noted are these: eleven survey populations; FIG. 4A. On the procedure:
A survey of Palmer amaranth in the US was conducted to identify additional populations resistant to the HPPD inhibiting herbicide tembotrione. A tembotrione dose response was conducted to compare the response of the survey populations to a known sensitive population. The population USA 12001 (the population used for all previous work to identify CYP450 genes) was used as a known resistant reference.

The subject of data set [7] is a CYP not implicated in herbicide resistance. Set-up: species or system Amaranthus palmeri. Particulars: in vivo. On the procedure: (§2) Transcript abundance was measured in the 11 resistant survey populations for genes CYP72A219 (a), CYP81E, and a CYP not implicated in herbicide resistance (FIG. 4B-D). Known sensitive populations HPPD S and HPPD S 12021 were included as references, as was known resistant population HPPD R 12001, the population previously characterized for increased expression of CYP72A219 (a) and CYP81E. Relative transcript abundance was quantified using qRT-PCR on cDNA synthesized from RNA extracted from individuals before and 6 h after tembotrione treatment, using normalization genes as previously described.

The next data set relates to CYP81E. Set-up: species or system Amaranthus palmeri. The conditions noted are these: in vivo. On the procedure: as §2
The subject of a further data set is CYP72A219 (a). Also noted: species or system Amaranthus palmeri. Particulars: in vivo. The method, then:
as §2

Data set [8] has as its system CYP72A219 gene from chromosome 4 (MAKER-25717; SEQ ID NO: 1). Briefly: tembotrione metabolism in yeast expressing CYP72A219 (a). The data set is classed as in vitro ADME, Amaranthus palmeri. The conditions noted are these: CYP72A219 SEQ ID NO: 1 vector; 150 μL of 1000 μM tembotrione, 24 h, 30 C; FIG. 3C. On the procedure: as §1
Data set [9] concerns CYP81E gene (SEQ ID NO: 9). As to the kind of experiment: tembotrione metabolism in yeast expressing CYP81E. Type of data set: in vitro ADME, Amaranthus palmeri. The conditions noted are these: CYP81E SEQ ID NO: 9 vector; 150 μL of 1000 μM tembotrione, 24 h, 30 C; FIG. 3F. On the procedure:
as §1

The subject of data set [10] is CYP72A219 (a), CYP72A219 (b), CYP72A219 (c) and CYP81E genes. Also noted: species or system Amaranthus palmeri. Particulars: in vivo.

Take `CS(=O)(=O)c1ccc(C(=O)C2C(=O)CCCC2=O)c(Cl)c1COCC(F)(F)F` [tembotrione, 2-[2-chloro-4-(methylsulfonyl)-3-[(2,2,2,-tri-fluoroethoxy)methyl]benzoyl]-1,3-cyclo-hexanedione]: the formation of hydroxy-tembotrione entry in data set [1], in data set [3] and in [9] was “did not show formation of hydroxy-tembotrione” in each case. Besides, the entries for the “formation of hydroxy-tembotrione metabolite” value in data set [2] and in data set [8] were “also showed formation of the hydroxy-tembotrione metabolite” and “showed formation of the hydroxy-tembotrione metabolite; also recorded: produced the same hydroxy-tembotrione metabolite as produced in planta”, respectively. Further, in [4], the “expression of both genes after treatment with tembotrione (qRT-PCR)” value was “high expression of both genes”. Further, in [5], the “detoxification to 4-hydroxy tembotrione metabolite followed by glycosylation” value was “rapidly detoxify”. Further, the “formation of 4-hydroxy tembotrione metabolites in NES” value in data set [5] is “at a slower rate than in NER”. For the same molecule, the “rate of hydroxylation, NER compared with NES” value in [5] is on record as “more rapidly in NER”. The “parent tembotrione and hydroxy tembotrione metabolites in supernatant (LC/MS-MS)” value in [6] was “only intact tembotrione and no metabolites; also recorded: did not detoxify tembotrione”. Also, the “LD50 (dose of tembotrione required to cause 50% mortality in the population) relative to reference sensitive population” value in the data set on Palmer amaranth is “significantly higher LD50”. The “expression of CYP unrelated to herbicide resistance before or after tembotrione treatment” value in [7] was “had not increased expression in any populations”. The “CYP81E expression constitutively or after tembotrione treatment” value with CYP81E is given as “No resistant populations from the survey had increased expression of CYP81E”. The “CYP72A219 (a) expression following tembotrione treatment” value in the data set with CYP72A219 (a) was “increased CYP72A219 (a) expression”. The “expression of all four cytochrome P450 genes following tembotrione treatment” value in data set [10] is recorded as “induced”.
